Like-named read-outs stand apart in the source and are kept apart here.
Experiments:
Cyp1b1 = test: HaCaT cells, CYP1B1 mRNA by Reverse Transcriptase Real-Time PCR; assay type: cell-based, human; conditions: 1 μM, 24h
Cyp1a1 [1] = test: HaCaT cells, CYP1A1 mRNA by Reverse Transcriptase Real-Time PCR; conditions: for induction of CYP1A1 mRNA: 100 nM; for Cyp1a1 induction, time dependence: 24h compared to 3 and 6h
AhR [2] = molecular target: T1, AhR (Homo sapiens, UniProt P35869); test: cell-based
T1 sequence (P35869 11-848): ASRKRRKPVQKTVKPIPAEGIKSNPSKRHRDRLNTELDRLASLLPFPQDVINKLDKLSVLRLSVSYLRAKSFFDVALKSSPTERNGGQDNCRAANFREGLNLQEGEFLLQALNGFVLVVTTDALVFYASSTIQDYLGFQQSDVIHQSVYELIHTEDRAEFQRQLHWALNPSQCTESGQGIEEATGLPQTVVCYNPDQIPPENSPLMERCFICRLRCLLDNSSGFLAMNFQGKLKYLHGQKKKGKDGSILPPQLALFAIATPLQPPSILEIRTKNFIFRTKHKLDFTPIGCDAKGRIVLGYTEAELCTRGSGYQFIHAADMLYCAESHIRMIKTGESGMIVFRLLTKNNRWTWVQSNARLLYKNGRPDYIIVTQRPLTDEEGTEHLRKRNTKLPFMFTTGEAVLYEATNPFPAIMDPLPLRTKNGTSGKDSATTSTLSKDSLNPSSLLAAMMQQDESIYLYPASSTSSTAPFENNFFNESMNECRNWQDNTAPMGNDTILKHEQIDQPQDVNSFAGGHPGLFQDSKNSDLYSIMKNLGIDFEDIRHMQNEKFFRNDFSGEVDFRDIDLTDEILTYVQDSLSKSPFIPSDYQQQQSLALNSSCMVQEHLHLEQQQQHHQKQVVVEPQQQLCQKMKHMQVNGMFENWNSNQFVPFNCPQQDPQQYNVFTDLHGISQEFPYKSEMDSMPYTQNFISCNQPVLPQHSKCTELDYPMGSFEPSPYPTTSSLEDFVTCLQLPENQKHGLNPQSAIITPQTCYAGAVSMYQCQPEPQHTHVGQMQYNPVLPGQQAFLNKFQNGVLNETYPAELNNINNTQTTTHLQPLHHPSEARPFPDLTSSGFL

Cyp1a1 [3] = conditions: human
AhR [4] = molecular target: T1, AhR
[5] = 6 hours of incubation, HG2L7.5c1 cells

Row | Compound | induction of CYP1A1 mRNA (Cyp1a1 [1]; 24h) | Cyp1a1 induction, time dependence (Cyp1a1 [1]) | EC50 (AhR [2]) [µM] | further results
1 | O=Cc1c2[nH]c3ccccc3c2cc2[nH]c3ccccc3c12 [FICZ, 6-formylindolo[3,2-b]carbazole] | Statistically significant induction | higher at 24h | – | Cyp1b1 induction compared with ICZ or indirubin (Cyp1b1): significantly more potent; Cyp1a1 induction compared with ICZ or indirubin (Cyp1a1 [1]; 1 μM, 24h): significantly more potent
2 | Clc1cc2c(cc1Cl)Oc1cc(Cl)c(Cl)cc1O2 [TCDD, 2,3,7,8-tetrachlorodibenzo-p-dioxin, reference compound] | – | – | 0.000523 | –
3 | O=C1Nc2ccccc2/C1=C1/Nc2ccccc2C1=O [indirubin] | – | – | – | Cyp1a1 induction, time dependence (Cyp1a1 [3]): higher at 24h
4 | O=Cc1c(Cc2c[nH]c3ccccc23)[nH]c2ccccc12 [malassezin] | – | – | – | fold less potent than TCDD (AhR [4]; [5]): 20 fold
5 | O=C1c2ccccc2-n2c1nc1ccccc1c2=O [tryptanthrin] | – | – | 0.107 | fold less potent than TCDD (AhR [4]): 200 fold
6 | indolo[3,2-b]carbazole [ICZ] | Statistically significant induction | higher at 24h | – | potency relative to the prototypical AhR agonist TCDD (AhR [4]; [5]): equipotent

Reference: publication PMC3714356 (The Journal of investigative dermatology, 2013)
